Test results taken from PubChem BioAssay AID256 (DTP/NCI, 2004).
Where “and” joins values, the source holds several entries; their conditions need not be identical. Identical values can stand only once. Toxic doses and inconclusive results are not listed. The calls were made as follows: active = survival T/C of 150% or more; inactive = T/C below 125% in these data.

Test system: CD2F1 mice, L1210 leukemia ip, survival T/C
Assay: NCI In Vivo Anticancer Drug Screen. Data for tumor model L1210 Leukemia (intraperitoneal) in CD2F1 (CDF1) mice
Details: higher = longer survival
Procedure, shortened: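 Vehicle-treated tumor-bearing mice served as controls (C) for compound-treated mice (T). Reported figure is T divided by C.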

[1] = endpoint: mean survival time, dose: 100.0 mg/kg/injection, schedule: Q01DX009 (ip), vehicle: saline with Tween-80
[2] = endpoint: mean survival time, dose: 200.0 mg/kg/injection, schedule: Q01DX009 (ip), vehicle: saline with Tween-80
[3] = endpoint: mean survival time, dose: 400.0 mg/kg/injection, schedule: Q01DX009 (ip), vehicle: saline with Tween-80

Measured: T/C

[Cl][Pt][Cl].[NH-]C(CC(N)=O)C(=O)O (stereo unspecified)
inactive: endpoint: median survival time, dose: 3.12 mg/kg/injection, schedule: Q04DX003 (ip), vehicle: water 109 % of control | endpoint: median survival time, dose: 6.25 mg/kg/injection, schedule: Q04DX003 (ip), vehicle: water 108 % of control | endpoint: median survival time, dose: 12.5 mg/kg/injection, schedule: Q04DX003 (ip), vehicle: water 101 % of control | endpoint: median survival time, dose: 25.0 mg/kg/injection, schedule: Q04DX003 (ip), vehicle: water 106 % of control | endpoint: median survival time, dose: 50.0 mg/kg/injection, schedule: Q04DX003 (ip), vehicle: water 118 % of control | endpoint: median survival time, dose: 100.0 mg/kg/injection, schedule: Q04DX003 (ip), vehicle: water 110 % of control

COc1cc(C2CNCc3cc(O)c(OC)cc32)ccc1O (stereo unspecified)
inactive: endpoint: mean survival time, dose: 75.0 mg/kg/injection, schedule: Q01DX001 (ip), vehicle: saline 106 % of control | endpoint: mean survival time, dose: 150.0 mg/kg/injection, schedule: Q01DX001 (ip), vehicle: saline 102 % of control

[N-]=[N+]=NC1CC(n2ccc(=O)[nH]c2=O)OC1CO (stereo unspecified)
inactive: endpoint: median survival time, dose: 12.5 mg/kg/injection, schedule: Q01DX005 (ip), vehicle: saline 101 % of control | endpoint: median survival time, dose: 25.0 mg/kg/injection, schedule: Q01DX005 (ip), vehicle: saline 102 % of control | endpoint: median survival time, dose: 50.0 mg/kg/injection, schedule: Q01DX005 (ip), vehicle: saline 100 % of control | endpoint: median survival time, dose: 100.0 mg/kg/injection, schedule: Q01DX005 (ip), vehicle: saline 94 % of control | endpoint: median survival time, dose: 200.0 mg/kg/injection, schedule: Q01DX005 (ip), vehicle: saline 100 % of control

Nc1ccc(S(=O)(=O)Nc2cnc3c(Cl)cccc3n2)cc1
inactive: endpoint: median survival time, dose: 100.0 mg/kg/injection, schedule: Q01DX005 (ip), vehicle: DMSO 98 % of control | endpoint: median survival time, dose: 200.0 mg/kg/injection, schedule: Q01DX005 (ip), vehicle: DMSO 98 % of control | endpoint: median survival time, dose: 400.0 mg/kg/injection, schedule: Q01DX005 (ip), vehicle: DMSO 98 % of control | endpoint: median survival time, dose: 800.0 mg/kg/injection, schedule: Q01DX005 (ip), vehicle: DMSO 105 % of control

CC(=O)OC1(c2cc(C(F)(F)F)cc(C(F)(F)F)c2)C2CCC1CC2 (stereo unspecified)
inactive: endpoint: mean survival time, dose: 12.5 mg/kg/injection, schedule: Q04DX002 (ip), vehicle: saline with Tween-80 101 % of control | endpoint: mean survival time, dose: 25.0 mg/kg/injection, schedule: Q04DX002 (ip), vehicle: saline with Tween-80 97 % of control | endpoint: mean survival time, dose: 50.0 mg/kg/injection, schedule: Q04DX002 (ip), vehicle: saline with Tween-80 97 % of control

COC(=O)C(NC(=O)C(C)NC(=O)OCc1ccccc1)C(C)C (stereo unspecified)
inactive: [1] 97 % of control | [2] 93 % of control | [3] 98 % of control

CCCCCCC(O)C[N+](=O)[O-] (stereo unspecified)
inactive: endpoint: mean survival time, dose: 50.0 mg/kg/injection, schedule: Q01DX009 (ip), vehicle: saline with Tween-80 96 % of control | [2] 100 % of control

CCCC(=O)Nc1ccc(O)cc1
inactive: endpoint: mean survival time, dose: 50.0 mg/kg/injection, schedule: Q01DX009 (ip), vehicle: Klucel (hydroxypropylcellulose) (HPC) 95 % of control | endpoint: mean survival time, dose: 100.0 mg/kg/injection, schedule: Q01DX009 (ip), vehicle: Klucel (hydroxypropylcellulose) (HPC) 91 % of control | endpoint: mean survival time, dose: 200.0 mg/kg/injection, schedule: Q01DX009 (ip), vehicle: Klucel (hydroxypropylcellulose) (HPC) 104 % of control | endpoint: mean survival time, dose: 400.0 mg/kg/injection, schedule: Q01DX009 (ip), vehicle: Klucel (hydroxypropylcellulose) (HPC) 123 % of control

Cc1c(N)nc([C@H](CC(N)=O)NC[C@H](N)C(N)=O)nc1C(=O)N[C@H](C(=O)N[C@H](C)[C@@H](O)[C@H](C)C(=O)N[C@H](C(=O)NCCc1nc(-c2nc(C(=O)NCCC[S+](C)C)cs2)cs1)[C@@H](C)O)C(OC1OC(CO)C(O)C(O)C1OC1OC(CO)C(O)C(OC(N)=O)C1O)c1cnc[nH]1 (stereo partly specified)
inactive: endpoint: mean survival time, dose: 2.0 mg/kg/injection, schedule: Q01DX009 (ip), vehicle: saline 103 % of control and 106 % of control | endpoint: mean survival time, dose: 2.0 mg/kg/injection, schedule: Q01DX009 (ip), vehicle: water 106 % of control | endpoint: mean survival time, dose: 4.0 mg/kg/injection, schedule: Q01DX009 (ip), vehicle: water 110 % of control | endpoint: mean survival time, dose: 8.0 mg/kg/injection, schedule: Q01DX009 (ip), vehicle: water 110 % of control | endpoint: mean survival time, dose: 12.0 mg/kg/injection, schedule: Q01DX009 (ip), vehicle: saline 117 % of control | endpoint: mean survival time, dose: 16.0 mg/kg/injection, schedule: Q01DX009 (ip), vehicle: water 108 % of control | endpoint: mean survival time, dose: 32.0 mg/kg/injection, schedule: Q01DX009 (ip), vehicle: saline 115 % of control and 104 % of control | endpoint: mean survival time, dose: 32.0 mg/kg/injection, schedule: Q01DX009 (ip), vehicle: water 103 % of control | endpoint: mean survival time, dose: 64.0 mg/kg/injection, schedule: Q01DX009 (ip), vehicle: saline 104 % of control | endpoint: median survival time, dose: 0.5 mg/kg/injection, schedule: Q01DX009 (ip), vehicle: saline 88 % of control | endpoint: median survival time, dose: 0.5 mg/kg/injection, schedule: Q03HX024 (ip), vehicle: saline 105 % of control | endpoint: median survival time, dose: 1.0 mg/kg/injection, schedule: Q01DX009 (ip), vehicle: saline 100 % of control and 108 % of control | endpoint: median survival time, dose: 1.0 mg/kg/injection, schedule: Q03HX016 (ip), vehicle: saline 104 % of control | endpoint: median survival time, dose: 1.0 mg/kg/injection, schedule: Q03HX024 (ip), vehicle: saline 105 % of control | endpoint: median survival time, dose: 2.0 mg/kg/injection, schedule: Q03HX008 (ip), vehicle: saline 109 % of control | endpoint: median survival time, dose: 2.0 mg/kg/injection, schedule: Q03HX016 (ip), vehicle: saline 104 % of control | endpoint: median survival time, dose: 2.0 mg/kg/injection, schedule: Q03HX024 (ip), vehicle: saline 104 % of control | endpoint: median survival time, dose: 4.0 mg/kg/injection, schedule: Q03HX008 (ip), vehicle: saline 104 % of control | endpoint: median survival time, dose: 4.0 mg/kg/injection, schedule: Q03HX016 (ip), vehicle: saline 97 % of control | endpoint: median survival time, dose: 4.0 mg/kg/injection, schedule: Q03HX024 (ip), vehicle: saline 104 % of control | endpoint: median survival time, dose: 8.0 mg/kg/injection, schedule: Q03HX008 (ip), vehicle: saline 107 % of control | endpoint: median survival time, dose: 8.0 mg/kg/injection, schedule: Q03HX016 (ip), vehicle: saline 104 % of control | endpoint: median survival time, dose: 8.0 mg/kg/injection, schedule: Q04DX003 (ip), vehicle: saline 107 % of control | endpoint: median survival time, dose: 8.0 mg/kg/injection, schedule: Q08DX002 (ip), vehicle: saline 105 % of control | endpoint: median survival time, dose: 16.0 mg/kg/injection, schedule: Q01DX001 (ip), vehicle: saline 103 % of control | endpoint: median survival time, dose: 16.0 mg/kg/injection, schedule: Q03HX008 (ip), vehicle: saline 103 % of control | endpoint: median survival time, dose: 16.0 mg/kg/injection, schedule: Q03HX016 (ip), vehicle: saline 101 % of control | endpoint: median survival time, dose: 16.0 mg/kg/injection, schedule: Q04DX003 (ip), vehicle: saline 109 % of control | endpoint: median survival time, dose: 16.0 mg/kg/injection, schedule: Q08DX002 (ip), vehicle: saline 105 % of control | endpoint: median survival time, dose: 32.0 mg/kg/injection, schedule: Q01DX001 (ip), vehicle: saline 98 % of control | endpoint: median survival time, dose: 32.0 mg/kg/injection, schedule: Q04DX003 (ip), vehicle: saline 101 % of control | endpoint: median survival time, dose: 32.0 mg/kg/injection, schedule: Q08DX002 (ip), vehicle: saline 102 % of control | endpoint: median survival time, dose: 64.0 mg/kg/injection, schedule: Q01DX001 (ip), vehicle: saline 98 % of control | endpoint: median survival time, dose: 64.0 mg/kg/injection, schedule: Q04DX003 (ip), vehicle: saline 104 % of control | endpoint: median survival time, dose: 64.0 mg/kg/injection, schedule: Q08DX002 (ip), vehicle: saline 107 % of control | endpoint: median survival time, dose: 128.0 mg/kg/injection, schedule: Q01DX001 (ip), vehicle: saline 105 % of control | endpoint: median survival time, dose: 128.0 mg/kg/injection, schedule: Q04DX003 (ip), vehicle: saline 115 % of control | endpoint: median survival time, dose: 128.0 mg/kg/injection, schedule: Q08DX002 (ip), vehicle: saline 97 % of control | endpoint: median survival time, dose: 256.0 mg/kg/injection, schedule: Q01DX001 (ip), vehicle: saline 107 % of control

COC(=O)C1(C)CCCC2(C)c3cc(OC)ccc3C=CC12 (stereo unspecified)
inactive: [1] 104 % of control | [2] 106 % of control | [3] 103 % of control
